Data as given in patent US20210244713A1, “ANHYDROUS COMPOSITIONS OF mTOR INHIBITORS AND METHODS OF USE” (PALVELLA THERAPEUTICS, INC., priority 2018, published 2021).

Columns and labels:
[1] = Ex vivo skin permeation experiment; format: in vitro ADME, Human
Protocol: Human donor skin was placed between upper and lower compartments. The lower compartment was filled with receiver fluid. Various rapamycin compositions were applied on the surface of the skin facing the upper compartment (11 formulations (i.e., O3, NA21, NA22, NA21, NA17, TD201, NA19, NA25, AG14, NA26 and NA24), n=6 replicates, dosage 10 mg/cm^2) and left for 24 hrs. A positive displacement pipette was used to apply the formulation (˜10 mg/cm^2) to the plunger of a 1 mL syringe. The formulation (10+/−0.5 mg) was applied to the skin surface and spread over the diffusion area using the plunger. Prior to and after the application the weight of the plunger was recorded, from which the dose per cell was calculated.
Following the time period, the excess rapamycin compositions were wiped from the skin surface and the skin layers were separated into stratum corneum, epidermis, and dermis. The Stratum corneum was removed from the human skin using a tape stripping procedure. The epidermis was separated from the dermis by dry heating at 60° C. for 2 min. Rapamycin was extracted from each layer by 90:10 v/v ethanol:water solvent mixture, and quantified. The receiver fluid in the lower compartment was also analyzed for the presence of rapamycin.

[2] = Solubility of rapamycin in solvents and solvent combination

CO[C@H]1C[C@@H]2CC[C@@H](C)[C@@](O)(O2)C(=O)C(=O)N2CCCC[C@H]2C(=O)O[C@H]([C@H](C)C[C@@H]2CC[C@@H](O)[C@H](OC)C2)CC(=O)[C@H](C)/C=C(\C)[C@@H](O)[C@@H](OC)C(=O)[C@H](C)C[C@H](C)/C=C/C=C/C=C/1C [Rapamycin, rapamycin (sirolimus)]
amount of rapamycin found on the surface of the skin ([1]; after 24 hours, relative to skin layers): greatest amount | amount of rapamycin quantified in both the epidermis and dermis over time ([1]; ex vivo human skin): increase | drug residing in the epidermis versus stratum corneum or dermal layer ([1]; ex vivo human skin): more of the drug residing in the epidermis | rapamycin detected in the receiver fluid ([1]; ex vivo human skin, any of the time points across the experimental period): not detected | Solubility capacity of each excipient based on concentration in formulation ([2]; IPA at 15.00 wt %): 0.56 wt % | Solubility capacity of each excipient based on concentration in formulation ([2]; IPA at 15.00 wt %, listed as rapamycin): −0.56 wt % | Solubility capacity of each excipient based on concentration in formulation ([2]; PEG 400 at 60.00 wt %): 1.03 wt % | Solubility capacity of each excipient based on concentration in formulation ([2]; diisopropyl adipate (DIA) at 15.00 wt %): 0.26 wt % | Solubility capacity of each excipient based on concentration in formulation ([2]; glycerol at 10.00 wt %): 0.08 wt % | Solubility capacity of the solvent system (expected maximum, simple linear additive effect) ([2]; sum of the excipient capacities): 1.93 wt %
